#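 Grown in 96-well plates, cells were treated for 48 hours with each compound at five concentrations. Insufficient inhibition: endpoint recorded as highest concentration tested. GI50 marks 50% less growth.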 Calls of active or inactive are those of the source. No stated cut-off is given here; in the data, active = GI50 up to about 1.1 µM and inactive = higher.
# Key:
# Test in all cases: NCI anticancer screen, dose series, 48 h
# HCC 2998 = system: HCC 2998
# SW-620 = system: SW-620
# A498 = system: A498
# SF-295 = system: SF-295
# Malme-3M = system: Malme-3M
# SK-MEL-2 = system: SK-MEL-2
# A549 = system: A549
# OVCAR-8 = system: OVCAR-8
# HCT-15 = system: HCT-15
# M14 = system: M14
# BT-549 = system: BT-549
# OVCAR-4 = system: OVCAR-4
# LOX IMVI = system: LOX IMVI
# HL-60 = system: HL-60
# 786-0 = system: 786-0
# HCT-116 = system: HCT-116
# MCF7 = system: MCF7
# CAKI-1 = system: CAKI-1
# HT-29 = system: HT-29
# NCI-H226 = system: NCI-H226
SMILES,GI50 (HCC 2998),GI50 (SW-620),GI50 (A498),GI50 (SF-295),GI50 (Malme-3M),GI50 (SK-MEL-2),GI50 (A549),GI50 (OVCAR-8),GI50 (HCT-15) [µM],GI50 (M14),GI50 (BT-549),GI50 (OVCAR-4),GI50 (LOX IMVI),GI50 (HL-60),GI50 (786-0),GI50 (HCT-116),GI50 (MCF7),GI50 (CAKI-1),GI50 (HT-29),GI50 (NCI-H226)
O=C(NCCCCCCNC(=O)c1cccc2ccccc12)Nc1cccc2ccccc12,> 100 µM (inactive),> 100 µM (inactive),> 100 µM (inactive),> 100 µM (inactive),> 100 µM (inactive),> 100 µM (inactive),> 100 µM (inactive),> 100 µM (inactive),> 100,> 100 µM (inactive),> 100 µM (inactive),> 100 µM (inactive),> 100 µM (inactive),> 100 µM (inactive),> 100 µM (inactive),> 100 µM (inactive),> 100 µM (inactive),> 100 µM (inactive),> 100 µM (inactive),–
N#CSC#Cc1ccc(C#CSC#N)cc1,17.6 µM (inactive),19.2 µM (inactive),20.2 µM (inactive),20.9 µM (inactive),19.1 µM (inactive),20.2 µM (inactive),17.8 µM (inactive),19.6 µM (inactive),19.4,–,17.9 µM (inactive),8.81 µM (inactive),16.3 µM (inactive),54.8 µM (inactive),17.2 µM (inactive),19 µM (inactive),19.9 µM (inactive),16.1 µM (inactive),20.1 µM (inactive),21.6 µM (inactive)
O=C(c1ccc(Cl)cc1)N(C(=S)OCc1ccccn1)c1ccccc1,–,66.7 µM (inactive),> 100 µM (inactive),76.6 µM (inactive),61.1 µM (inactive),> 100 µM (inactive),–,> 100 µM (inactive),40.4,65.3 µM (inactive),60.7 µM (inactive),–,68.2 µM (inactive),28.8 µM (inactive),83.2 µM (inactive),46.6 µM (inactive),46.3 µM (inactive),71.8 µM (inactive),55 µM (inactive),33.7 µM (inactive)
COc1ccc2c(c1)CCc1c-2n(CCN(C)C)c2ccc(OC)cc12,3.09 µM (inactive),5.37 µM (inactive),17.6 µM (inactive),18.3 µM (inactive),19.7 µM (inactive),18.5 µM (inactive),15 µM (inactive),20.7 µM (inactive),11.4,3.6 µM (inactive),29.1 µM (inactive),25.4 µM (inactive),7.89 µM (inactive),–,27.2 µM (inactive),5.33 µM (inactive),16.4 µM (inactive),22.1 µM (inactive),3.44 µM (inactive),3.03 µM (inactive)
COC(=O)c1c(C)nc(C)c(NO)c1-c1ccccc1C(F)(F)F,> 100 µM (inactive),16 µM (inactive),> 100 µM (inactive),> 100 µM (inactive),16.9 µM (inactive),53.8 µM (inactive),> 100 µM (inactive),18.5 µM (inactive),16.1,19 µM (inactive),16.7 µM (inactive),20 µM (inactive),38.3 µM (inactive),5.41 µM (inactive),16.4 µM (inactive),16.3 µM (inactive),19.2 µM (inactive),16.2 µM (inactive),18.4 µM (inactive),20.2 µM (inactive)
CCOC(=O)/C=C/C1OC(C)(C)OC1/C=C/C(=O)OCC (centres undefined),23.2 µM (inactive),19.7 µM (inactive),42 µM (inactive),48.6 µM (inactive),39.8 µM (inactive),81.5 µM (inactive),40.9 µM (inactive),25.5 µM (inactive),23.4,37.7 µM (inactive),54.8 µM (inactive),32.4 µM (inactive),27 µM (inactive),–,32.2 µM (inactive),30.8 µM (inactive),30.8 µM (inactive),20.8 µM (inactive),18.2 µM (inactive),> 100 µM (inactive)
CN(NC(=O)c1ccco1)C1=NCCN1,> 100 µM (inactive),> 100 µM (inactive),> 100 µM (inactive),> 100 µM (inactive),> 100 µM (inactive),> 100 µM (inactive),> 100 µM (inactive),> 100 µM (inactive),> 100,> 100 µM (inactive),> 100 µM (inactive),> 100 µM (inactive),> 100 µM (inactive),> 100 µM (inactive),> 100 µM (inactive),> 100 µM (inactive),> 100 µM (inactive),–,> 100 µM (inactive),> 100 µM (inactive)
Nc1ccc(-c2nc3ccccc3s2)cc1C(F)(F)F,–,16.4 µM (inactive),17.6 µM (inactive),17.4 µM (inactive),15.8 µM (inactive),17.2 µM (inactive),17.8 µM (inactive),18.6 µM (inactive),13.4,14.9 µM (inactive),13.2 µM (inactive),–,16.4 µM (inactive),12.5 µM (inactive),13.5 µM (inactive),13.4 µM (inactive),1.52 µM (inactive),15.2 µM (inactive),15.5 µM (inactive),–
